In PubChem BioAssay (NCI):
Where “and” joins values, the source holds several entries; their conditions need not be identical. Equal entries are not always repeated.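 Method: 48-hour compound exposure of cells in 96-well plates, five concentrations, linear interpolation of endpoints. At the GI50, growth is halved. TGI denotes the concentration required for complete inhibition of growth.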

Key:
Assay in all cases: DTP human tumour cell line panel, 48 h
SNB-75 CNS = test system: SNB-75 CNS
NCI-H23 lung = test system: NCI-H23 lung
UACC-62 melanoma = test system: UACC-62 melanoma
IGROV1 ovarian = test system: IGROV1 ovarian
NCI-H522 lung = test system: NCI-H522 lung
KM12 colon = test system: KM12 colon
U251 CNS = test system: U251 CNS
SK-MEL-2 melanoma = test system: SK-MEL-2 melanoma
HT29 colon = test system: HT29 colon
M14 melanoma = test system: M14 melanoma

| Compound | TGI (SNB-75 CNS) [µM] | TGI (NCI-H23 lung) [µM] | TGI (UACC-62 melanoma) [µM] | TGI (IGROV1 ovarian) | TGI (NCI-H522 lung) | TGI (KM12 colon) [µM] | TGI (U251 CNS) [µM] | TGI (SK-MEL-2 melanoma) [µM] | TGI (HT29 colon) [µM] | TGI (M14 melanoma) | GI50 (SNB-75 CNS) [µM] | GI50 (NCI-H23 lung) [µM] | GI50 (HT29 colon) [µM] | GI50 (IGROV1 ovarian) | GI50 (NCI-H522 lung) | GI50 (KM12 colon) [µM] | GI50 (UACC-62 melanoma) [µM] | GI50 (M14 melanoma) [µM] | GI50 (U251 CNS) [µM] | GI50 (SK-MEL-2 melanoma) [µM] |
| --- | --- | --- | --- | --- | --- | --- | --- | --- | --- | --- | --- | --- | --- | --- | --- | --- | --- | --- | --- | --- |
| O=c1c(-c2ccccc2)c(SCCN2CCOCC2)n(-c2ccccc2)c(=S)n1-c1ccccc1 | 87.6 | > 100 | > 100 | > 100 µM | > 100 µM | > 100 | > 100 | > 100 | – | – | – | – | – | – | – | – | – | – | – | – |
| O=C(CSSCC(=O)OCCS(=O)(=O)Nc1ccc(Br)cc1)OCCS(=O)(=O)Nc1ccc(Br)cc1 | 66.6 | 64 | 34.6 | 88.7 µM | 24 µM | 30 | > 100 | 79.6 | 31.8 | 39.1 µM | – | – | – | – | – | – | – | – | – | – |
| CCCC[C@H]1C(=O)O[C@H](C)[C@H](NC(=O)c2cccc(NC=O)c2OC)C(=O)O[C@@H](C)[C@@H]1OC(=O)CC(C)C (tested in a mixture with another compound) | 17.9 | 26.5 | 18.5 | 15 µM | 21 µM | 46.9 | 18.9 | 29 | 33.1 | 46.6 µM | – | – | – | – | – | – | – | – | – | – |
| O=S(=O)(O)c1ccc2c(N=Nc3ccccc3)c(O)ccc2c1 | > 100 | > 100 | > 100 | > 100 µM | > 100 µM | > 100 | > 100 | > 100 | > 100 | > 100 µM | – | – | – | – | – | – | – | – | – | – |
| Cc1ccc2c3c1[C@@H]1O[C@@H]1c1cccc(c1-3)[C@@H]1O[C@H]21 | 15.7 | 31.8 | 40.2 | – | 29.6 µM | 28.8 | 28.9 | 33.7 | 23.4 | 25.1 µM | – | – | – | – | – | – | – | – | – | – |
| Cc1cc2c(cc1Cl)SC(c1ccccc1O)NS2(=O)=O (stereo not given) | > 100 | > 100 | > 100 | > 100 µM | > 100 µM | > 100 | > 100 | > 100 | > 100 | > 100 µM | – | – | – | – | – | – | – | – | – | – |
| CCOC(=O)/C(=C\NC(C)(C)CO)c1nc2ccccc2[nH]1 | > 100 | > 100 | > 100 | > 100 µM | > 100 µM | > 100 | – | – | > 100 | > 100 µM | – | – | – | – | – | – | – | – | – | – |
| COc1ccc(N=Nc2c(N)nn(C)c2N)cc1 | > 100 | > 100 | > 100 | > 100 µM | > 100 µM | > 100 | > 100 | > 100 | > 100 | > 100 µM | – | – | – | – | – | – | – | – | – | – |
| CCOC(=O)C12CC(C)=C(C)CC1CCCc1ccccc12 (stereo not given) | 71.1 | > 100 | > 100 | > 100 µM | 39.5 µM | > 100 | 39.6 | 31.6 | 36.5 | > 100 µM | – | – | – | – | – | – | – | – | – | – |
| COc1ccc(N=Cc2ccc(N(CCC#N)S(=O)(=O)c3ccccc3)cc2C)cc1 | > 100 | > 100 | > 100 | > 100 µM | > 100 µM | – | > 100 | 67.8 | > 100 | 71.5 µM | – | – | – | – | – | – | – | – | – | – |
| COc1ccc2c(c1)CCCc1c-2nc2ccccc2c1N | 22.6 | 31.6 | 25.4 | 28.7 µM | 28 µM | 30.9 | 25.2 | 29.1 | 13.7 | 21.1 µM | – | – | – | – | – | – | – | – | – | – |
| N#Cc1c(-c2ccc(Cl)cc2)c2c([nH]c1=O)-c1cc([N+](=O)[O-])ccc1CCC2 | 78.3 | 36.2 | 32.4 | 60.3 µM | 41.8 µM | 55.5 | 41.6 | 43.4 | 75.5 | 73.4 µM | – | – | – | – | – | – | – | – | – | – |
| COC(=O)c1ccc2c(c1)sc1nc(-c3ccc(OC)cc3)cn12 | > 100 | > 100 | > 100 | > 100 µM | > 100 µM | > 100 | > 100 | > 100 | > 100 | > 100 µM | – | – | – | – | – | – | – | – | – | – |
| COc1cc(C2C(=O)C(Cl)N2Nc2nc(C)cc(=O)[nH]2)cc(OC)c1OC (stereo not given) | 43.3 | 50.3 | – | 35 µM | – | 76.9 | 36.3 | 25.2 | 66.2 | 26.5 µM | – | – | – | – | – | – | – | – | – | – |
| C[C@H]1CCC/C=C/[C@@H]2C[C@H](O)C[C@H]2[C@H](O)/C=C/C(=O)O1 | – | – | – | 1.12 µM and 0.973 µM and 0.645 µM | 0.208 µM and 0.213 µM and 0.354 µM | – | > 100 | – | – | 6.57 µM and 0.738 µM | 0.0185 | 0.0531 | 0.0224 | 0.0395 µM and 0.107 µM and 0.0723 µM | 0.044 µM and 0.0952 µM and 0.115 µM | 0.0197 | – | – | – | – |
| CCCCCCCCCCCCSC(=S)c1c(C)[nH]n(CCCCCCCCCCCC)c1=O | > 100 | > 100 | > 100 | > 100 µM | > 100 µM | > 100 | > 100 | > 100 | > 100 | – | – | – | – | – | – | – | – | – | – | – |
| O=C1CS(=O)(=O)C(c2cccc(Oc3ccccc3)c2)N1C1CC1 (stereo not given) | 80.7 | > 100 | > 100 | – | > 100 µM | > 100 | > 100 | > 100 | > 100 | > 100 µM | – | – | – | – | – | – | – | – | – | – |
| Cc1cn(Cc2cn(CC3OC(n4cc(C)c(=O)[nH]c4=O)CC3O)nn2)c(=O)[nH]c1=O (stereo not given) | > 100 | > 100 | > 100 | – | – | > 100 | > 100 | > 100 | – | > 100 µM | – | – | – | – | – | – | – | – | – | – |
| CCN(CCO)CCNc1ccc(C)c2sc3ccccc3c(=O)c12 | 12 | 21.3 | 3.34 | 12.9 µM | 11.4 µM | 11.2 | 12.4 | 9.33 | 6.31 | 3.23 µM | – | – | – | – | – | – | – | – | – | – |
| O=C([CH-]C(=O)c1ccccc1)c1ccccc1.O=C([CH-]C(=O)c1ccccc1)c1ccccc1.O=C([CH-]C(=O)c1ccccc1)c1ccccc1.[Cl-].[Hf+4] | > 100 | 83.4 | > 100 | > 100 µM | 62.8 µM | > 100 | > 100 | – | > 100 | 32.9 µM | 9.43 | 15.8 | 33.9 | 33.3 µM | 12.6 µM | 21.1 | 14.6 | 13.5 | 19.1 | – |
| Cn1c2cn[nH]c(=O)c2c2ccc3ccccc3c21 | 38.3 | 67.2 | > 100 | 32.2 µM | 59.5 µM | > 100 | 47.1 | 46.7 | > 100 | > 100 µM | – | – | – | – | – | – | – | – | – | – |
| O=C(O)CCCN=C(C1=C(O)C(=O)N(c2ccccc2)C1=O)c1ccccc1 | > 100 | > 100 | > 100 | > 100 µM | > 100 µM | > 100 | > 100 | > 100 | > 100 | > 100 µM | – | – | – | – | – | – | – | – | – | – |
| O=c1[nH]c(=O)n(CCOCP(=O)(O)O)nc1Br | > 100 | > 100 | – | > 100 µM | > 100 µM | > 100 | > 100 | > 100 | > 100 | > 100 µM | – | – | – | – | – | – | – | – | – | – |
| Cc1cc(=O)n2c3c(c4c(cc13)c(CN(C)C)cc(=O)n4C)OC2 | 58.6 | 50.2 | 30.1 | 41.9 µM | 28.4 µM | 67.7 | > 100 | 41.6 | > 45.9 | 31.2 µM | – | – | – | – | – | – | – | – | – | – |
| CCCCCCCCCCCCCCCCCC(=O)OCC1OC(OC)C(NC(=O)N(CCCl)N=O)C(O)C1O (stereo not given) | 41.6 | 43 | 23.3 | > 100 µM | 38.3 µM | 67.9 | – | > 100 | 63.6 | > 100 µM | – | – | – | – | – | – | – | – | – | – |
| O=c1[nH]c2cc([N+](=O)[O-])c(N/N=C/c3ccc(Cl)cc3Cl)c([N+](=O)[O-])c2[nH]1 | > 100 | > 100 | > 100 | 78.3 µM | 94 µM | 25.8 | > 100 | > 100 | > 100 | > 100 µM | – | – | – | – | – | – | – | – | – | – |
| CC(C)(C)c1cc(-c2nc3ccc(N4CCN(CCO)CC4)cc3[nH]2)cc(C(C)(C)C)c1O | 4.55 | > 100 | 3.22 | > 100 µM | – | – | – | 5.73 | – | – | 1.21 | 4.65 | – | 3.25 µM | – | – | 1.73 | – | – | 2.39 |
| N=C(N)c1ccc(N=Nc2c(O)ccc3cc4c(N=Nc5ccc(C(=N)N)cc5)c(O)ccc4cc23)cc1 | > 100 | – | > 100 | > 100 µM | > 100 µM | > 100 | > 100 | > 100 | > 100 | > 100 µM | – | – | – | – | – | – | – | – | – | – |
| C/C(=C\C(=N\NC(=N)N)c1ccccc1)c1ccccc1 | 17.3 | 4.01 | 3.23 | 2.11 µM | 1.76 µM | 3.67 | 2.04 | – | 3.44 | 2.47 µM | – | – | – | – | – | – | – | – | – | – |
| O=C(NC(Cc1ccc(Cl)cc1)C(=O)O)c1ccc(I)cc1 (stereo not given) | > 100 | > 100 | > 100 | > 100 µM | > 100 µM | > 100 | > 100 | > 100 | > 100 | – | – | – | – | – | – | – | – | – | – | – |
